{"source": "patent US20050220819A1", "about": "“Novel binding epitopes for helicobacter pylori and use thereof” (priority 2002, published 2005)", "key": {"Helicobacter pylori [1]": {"test_system": "Helicobacter pylori", "test": "TLC bacterial overlay assay: binding of radiolabeled Helicobacter pylori to glycosphingolipids, neoglycolipids and glycolipid derivatives on thin-layer plates", "details": "for binding of glycolipid derivatives with regard to Helicobacter pylori (in words) / binding activity of neoglycolipids with regard to Helicobacter pylori (in words): TLC overlay assay; for binding of Helicobacter pylori to purified glycosphingolipids (in words): strain 032, overlay assay on thin-layer plates; for binding activity of neoglycolipids with regard to Helicobacter pylori (in words): oligosaccharides reductively aminated to lipid anchor (4-hexadecylaniline)"}, "[2]": {"test_system": "Helicobacter pylori binding to human gastrointestinal cell lines", "details": "Simon et al., 1999; cited from earlier work"}, "Helicobacter pylori [3]": {"test_system": "Helicobacter pylori", "details": "Mysore et al., 2000; cited from earlier work"}}, "note": "Entries after “also recorded” stand apart in the source; their conditions may differ.", "data": [{"molecule": "Glc(A-ethylamide)β3 Galβ4GlcNAcβ3Galβ4GlcβCer", "values": [{"measurement": "binding of glycolipid derivatives with regard to Helicobacter pylori (in words)", "setting": "Helicobacter pylori [1]", "result": "binding active"}, {"measurement": "binding strength towards H. pylori when comparing dilution series of glycolipids on TLC (in words)", "setting": "Helicobacter pylori [1]", "result": "about equally strong binders and best among the four amide derivatives"}]}, {"molecule": "Glc(A-methylamide)β3Galβ4GlcNAcβ3Galβ4GlcβCer", "values": [{"measurement": "binding of glycolipid derivatives with regard to Helicobacter pylori (in words)", "setting": "Helicobacter pylori [1]", "result": "binding active"}, {"measurement": "binding strength towards H. pylori when comparing dilution series of glycolipids on TLC (in words)", "setting": "Helicobacter pylori [1]", "result": "very strong binding"}]}, {"molecule": "GalNAcβ3Galα3Galβ4GlcNAcβ3Galβ4Glcβ1Cer [No. 25, reference compound]", "values": [{"measurement": "binding of Helicobacter pylori to purified glycosphingolipids (in words)", "setting": "Helicobacter pylori [1]", "result": "non-binding"}]}, {"molecule": "Glc(A-benzylamide)β3 Galβ4GlcNAcβ3Galβ4GlcβCer", "values": [{"measurement": "binding of glycolipid derivatives with regard to Helicobacter pylori (in words)", "setting": "Helicobacter pylori [1]", "result": "binding active"}, {"measurement": "binding strength towards H. pylori when comparing dilution series of glycolipids on TLC (in words)", "setting": "Helicobacter pylori [1]", "result": "binding effectively"}]}, {"molecule": "Glc(A-octadecylamide)β3Galβ4GlcNAcβ3Galβ4GlcβCer", "values": [{"measurement": "binding of glycolipid derivatives with regard to Helicobacter pylori (in words)", "setting": "Helicobacter pylori [1]", "result": "binding active"}, {"measurement": "binding strength towards H. pylori when comparing dilution series of glycolipids on TLC (in words)", "setting": "Helicobacter pylori [1]", "result": "binding effectively"}]}, {"molecule": "GalNAcβ3Galβ4GlcNAcβ3Galβ4Glcβ1Cer [No. 11, reference compound]", "values": [{"measurement": "binding of Helicobacter pylori to purified glycosphingolipids (in words)", "setting": "Helicobacter pylori [1]", "result": "binding was also found"}]}, {"molecule": "CC(=O)N[C@H]1[C@H](OC[C@H]2OC(O)[C@H](NC(C)=O)[C@@H](O)[C@@H]2O)O[C@H](CO)[C@@H](O[C@@H]2O[C@H](CO)[C@H](O)[C@H](O[C@@H]3O[C@H](CO)[C@@H](O)[C@H](O)[C@H]3NC(C)=O)[C@H]2O)[C@@H]1O", "note": "(stereo partly shown) [GlcNAcβ3Galβ4GlcNAcβ6GlcNAc]", "values": [{"measurement": "binding activity of neoglycolipids with regard to Helicobacter pylori (in words)", "setting": "Helicobacter pylori [1]", "result": "high affinity binding; also recorded: strong binding activity"}]}, {"molecule": "GlcAβ3Galβ4GlcNAcβ3Galβ4GlcβCer [reference compound]", "values": [{"measurement": "binding of glycolipid derivatives with regard to Helicobacter pylori (in words)", "setting": "Helicobacter pylori [1]", "result": "binding active"}]}, {"molecule": "Glcβ3Galβ4GlcNAcβ3Galβ4GlcβCer", "values": [{"measurement": "binding of glycolipid derivatives with regard to Helicobacter pylori (in words)", "setting": "Helicobacter pylori [1]", "result": "binding active"}, {"measurement": "binding strength towards H. pylori when comparing dilution series of glycolipids on TLC (in words)", "setting": "Helicobacter pylori [1]", "result": "strong binding"}]}, {"molecule": "maltoheptaose [reference compound]", "values": [{"measurement": "binding activity of neoglycolipids with regard to Helicobacter pylori (in words)", "setting": "Helicobacter pylori [1]", "result": "weakly binding or inactive"}]}, {"molecule": "CC(=O)NC1C(O)OC(COC2OC(CO)C(OC3OC(CO)C(O)C(OC4OC(CO)C(O)C(O)C4NC(C)=O)C3O)C(O)C2NC(C)=O)C(O)C1O", "note": "(stereo not shown) [GlcNAcβ3Galβ4GlcNAcα6GlcNAc]", "values": [{"measurement": "binding activity of neoglycolipids with regard to Helicobacter pylori (in words)", "setting": "Helicobacter pylori [1]", "result": "weakly binding or inactive"}, {"measurement": "binding activity of neoglycolipids with regard to Helicobacter pylori (in words)", "setting": "Helicobacter pylori [1]; listed as GlcNAcα3Galβ4GlcNAcα6GlcNAc", "result": "inactive or very weakly active"}]}, {"molecule": "GlcAβ3GalNAcβ4GlcAβ3GalNAcβ4GlcAβ3GalNAc", "values": [{"measurement": "binding activity of neoglycolipids with regard to Helicobacter pylori (in words)", "setting": "Helicobacter pylori [1]", "result": "clear binding activity"}]}, {"molecule": "GlcAβ3Galβ4GlcNAcβ6GlcNAc", "values": [{"measurement": "binding activity of neoglycolipids with regard to Helicobacter pylori (in words)", "setting": "Helicobacter pylori [1]", "result": "clear binding activity"}]}, {"molecule": "CC(=O)N[C@H]1[C@H](OC[C@H]2O[C@@H](O[C@H]3[C@H](O)[C@@H](O)C(O)O[C@@H]3CO)[C@H](O)[C@@H](O)[C@H]2O)O[C@H](CO)[C@@H](O[C@@H]2O[C@H](CO)[C@H](O)[C@H](O[C@@H]3O[C@H](CO)[C@@H](O)[C@H](O)[C@H]3NC(C)=O)[C@H]2O)[C@@H]1O", "note": "(stereo partly shown) [GlcNAcβ3Galβ4GlcNAcβ6Galβ4Glc]", "values": [{"measurement": "binding activity of neoglycolipids with regard to Helicobacter pylori (in words)", "setting": "Helicobacter pylori [1]", "result": "weakly binding or inactive; also recorded: binding activity was strongly reduced"}]}, {"molecule": "Galα3Galβ4GlcNAcβ3Galβ4Glcβ1Cer [No. 13, reference compound]", "values": [{"measurement": "binding of Helicobacter pylori to purified glycosphingolipids (in words)", "setting": "Helicobacter pylori [1]", "result": "binding-active"}]}, {"molecule": "NeuAcα3GalNAcβ3Galβ4GlcNAcβ3Galβ4Glcβ1Cer [No. 24, reference compound]", "values": [{"measurement": "binding of Helicobacter pylori to purified glycosphingolipids (in words)", "setting": "Helicobacter pylori [1]", "result": "non-binding"}]}, {"molecule": "CC(=O)N[C@H]1[C@H](O[C@H]2[C@@H](O)[C@@H](CO)O[C@@H](O[C@H]3[C@H](O)[C@@H](O)C(O)O[C@@H]3CO)[C@@H]2O)O[C@H](CO)[C@@H](O[C@@H]2O[C@H](CO)[C@H](O)[C@@H](O[C@@H]3O[C@H](CO)[C@@H](O)[C@H](O)[C@H]3NC(C)=O)[C@H]2O)[C@@H]1O", "note": "(stereo partly shown) [GlcNAcβ3Galβ4GlcNAcβ3Galβ4Glc]", "values": [{"measurement": "binding activity of neoglycolipids with regard to Helicobacter pylori (in words)", "setting": "Helicobacter pylori [1]", "result": "clear binding activity"}]}, {"molecule": "CC(=O)N[C@H]1[C@H](OC[C@H]2OC(O)[C@H](NC(C)=O)[C@@H](O)[C@@H]2O)O[C@H](CO)[C@@H](O[C@@H]2O[C@H](CO)[C@H](O)[C@H](O)[C@H]2O)[C@@H]1O", "note": "(stereo partly shown) [Galβ4GlcNAcβ6GlcNAc]", "values": [{"measurement": "binding activity of neoglycolipids with regard to Helicobacter pylori (in words)", "setting": "Helicobacter pylori [1]", "result": "clear binding activity"}]}, {"molecule": "Glc(A-NH2)β3GalNAcβ4Glc(A-NH2)β3GalNAc", "values": [{"measurement": "binding activity of neoglycolipids with regard to Helicobacter pylori (in words)", "setting": "Helicobacter pylori [1]", "result": "strong binding activity"}]}, {"molecule": "CC(=O)NC1C(OC2C(O)C(CO)OC(OC3C(CO)OC(OC4C(O)C(O)OC(CO)C4O)C(NC(C)=O)C3O)C2O)OC(CO)C(O)C1O", "note": "(stereo not shown) [GlcNAcβ3Galβ4GlcNAcβ3Man]", "values": [{"measurement": "binding activity of neoglycolipids with regard to Helicobacter pylori (in words)", "setting": "Helicobacter pylori [1]", "result": "clear binding activity"}]}, {"molecule": "CC(=O)NC1C(O)OC(CO)C(OC2OC(CO)C(O)C(OC3OC(CO)C(O)C(O)C3NC(C)=O)C2O)C1O", "note": "(stereo not shown) [GlcNAcβ3Galβ4GlcNAc]", "values": [{"measurement": "binding activity of neoglycolipids with regard to Helicobacter pylori (in words)", "setting": "Helicobacter pylori [1]", "result": "weakly binding or inactive"}]}, {"molecule": "CNC(=O)C1OC(OC2C(O)C(CO)OC(OC3C(CO)OC(OCC4OC(O)C(NC(C)=O)C(O)C4O)C(NC(C)=O)C3O)C2O)C(O)C(O)C1O", "note": "(stereo not drawn) [Glc(A-methylamide)β3Galβ4GlcNAcβ6GlcNAc]", "values": [{"measurement": "binding activity of neoglycolipids with regard to Helicobacter pylori (in words)", "setting": "Helicobacter pylori [1]", "result": "strong binding activity"}]}, {"molecule": "CC(=O)NC1C(O)OC(CO)C(OC2OC(CO)C(O)C(OC3OC(CO)C(OC4OC(CO)C(O)C(O)C4NC(C)=O)C(O)C3NC(C)=O)C2O)C1O", "note": "(stereo not shown) [GalNAcβ4GlcNAcβ3Galβ4GlcNAc]", "values": [{"measurement": "binding activity of neoglycolipids with regard to Helicobacter pylori (in words)", "setting": "Helicobacter pylori [1]", "result": "clear binding activity"}]}, {"molecule": "CC(=O)N[C@H]1[C@H](OC[C@H]2OC(O)[C@H](O)[C@@H](O)[C@H]2O)O[C@H](CO)[C@@H](O[C@@H]2O[C@H](CO)[C@H](O)[C@H](O[C@@H]3O[C@H](CO)[C@@H](O)[C@H](O)[C@H]3NC(C)=O)[C@H]2O)[C@@H]1O", "note": "(stereo partly shown) [GlcNAcβ3Galβ4GlcNAcβ6Gal]", "values": [{"measurement": "binding activity of neoglycolipids with regard to Helicobacter pylori (in words)", "setting": "Helicobacter pylori [1]", "result": "some binding activity; also recorded: strong binding activity"}]}, {"molecule": "sialyl-lactose", "values": [{"measurement": "inhibition of Helicobacter pylori binding to human gastrointestinal cell lines", "setting": "[2]", "result": "inhibits"}, {"measurement": "efficacy in rhesus monkey animal model of the infection", "setting": "Helicobacter pylori [3]", "result": "effective"}]}, {"molecule": "CC(=O)NC1C(OC2C(O)C(CO)OC(OC3C(CO)OC(O)C(O)C3O)C2O)OC(CO)C(OC2OC(CO)C(O)C(OC3OC(CO)C(O)C(O)C3O)C2O)C1O", "note": "(stereo not shown) [Galα3Galβ4GlcNAcβ3Galβ4Glc]", "values": [{"measurement": "binding activity of neoglycolipids with regard to Helicobacter pylori (in words)", "setting": "Helicobacter pylori [1]", "result": "clear binding activity"}]}, {"molecule": "CC(=O)NC1C(OC2C(O)C(CO)OC(OC3C(CO)OC(O)C(O)C3O)C2O)OC(CO)C(OC2OC(CO)C(O)C(OC3OC(C(=O)O)C(O)C(O)C3O)C2O)C1O", "note": "(stereo not shown) [GlcAβ3Galβ4GlcNAcβ3Galβ4Glc]", "values": [{"measurement": "binding activity of neoglycolipids with regard to Helicobacter pylori (in words)", "setting": "Helicobacter pylori [1]", "result": "clear binding activity"}]}]}
